Measurements: patent US20230339862A1, “NOVEL DIBENZOACRIDINIUM DERIVATIVES, THEIR PROCESS OF PREPARATION AND THEIR USE FOR TREATING VIRAL INFECTIONS” (priority 2020, published 2023)
Where two headings read alike, the source gives them in different places.

Key:
HIV-1 [1] = settings: primary infected cells versus MT4 infected cell lines; cited from earlier work
HIV-1 [2] = test: microbe, parasite or virus in culture; format: cell-based; settings: for inhibition of HIV-1 infectivity: 10 µM
HIV-1 [3] = settings: MT4 cells, reported in 2014; read-out: IC50 HIV-1 infectivity; cited from earlier work
Marburg virus = test: organism not typed; format: cell-based; settings: read-out: Marburg virus inhibition (immunohistochemistry, infectious titer)
Ebola Gabon virus = test: microbe, parasite or virus in culture; format: cell-based; settings: Zaire ebolavirus, read-out: Ebola virus inhibition (immunohistochemistry, infectious titer)

## CN(C)c1ccc(Nc2c3ccc(NC(=O)CCN4CCCC4)cc3nc3cc(NC(=O)CCN4CCCC4)ccc23)cc1 [Braco19]
HIV-1 [1]
  antiviral effect in primary infected cells: less efficient with respect to MT4 infected cell lines
HIV-1 [2]; Human immunodeficiency virus 1, HeLaP4, read-out: IC50 HIV-1 infectivity
  IC50: ~8 µM
HIV-1 [3]
  IC50: ~6 µM

## COc1ccc2c(ccc3c2cc2c4ccc(OC)cc4ccc2[n+]3-c2ccccc2)c1.[Cl-] [C031]
HIV-1 [2]
  activity on HIV-1 relative to BRACO-19: at least five time more active
  inhibition of HIV-1 infectivity: Complete inhibition

## c1ccc(-[n+]2c3ccc4ccccc4c3cc3c4ccccc4ccc32)cc1 [C038]
HIV-1 [2]
  inhibition of HIV-1 infectivity: Complete inhibition

## COc1ccc2c(ccc3c2cc2c4ccc(OC)cc4ccc2[n+]3-c2ccc([N+](=O)[O-])cc2)c1 [C0370]
HIV-1 [2]
  activity on HIV-1 relative to BRACO-19: at least five time more active
  selectivity index (SI): 17
  inhibition of HIV-1 infectivity: Complete inhibition

## c1ccc(C[n+]2c3ccc4ccccc4c3cc3c4ccccc4ccc32)cc1 [CO39]
Marburg virus; 5 μM
  inhibition at 5 µM: 30%
Marburg virus; 20 μM
  inhibition at 20 µM: ~100%
Ebola Gabon virus; 5 μM
  inhibition at 5 µM: ~60%
Ebola Gabon virus; 20 μM
  inhibition at 20 µM: ~100%
